The record followed here is ChEMBL document CHEMBL5665443, “Enzyme Inhibitor Single Concentration assay results for EUbOPEN Chemogenomics Library” (2024).

Usually inhibition stands for the relative decrease from the control value, in per cent.

Conditions in all cases: Hit No
Assay [1] deals with Methyl-CpG-binding domain protein 4 (Homo sapiens) (UniProt O95243).
Description: Inhibition of MBD4 by quantifying inhibition of MBD4-mediated cleavage and dissociation of quenched duplex DNA oligonucleotides, measured as fluorescence at 594 nm. To generate a functional strand incision and increase turn-over this assay is coupled to APE1.
Assay [2] addresses T1, Adenine DNA glycosylase (Homo sapiens) (UniProt Q9UIF7).
T1 sequence (whole entry): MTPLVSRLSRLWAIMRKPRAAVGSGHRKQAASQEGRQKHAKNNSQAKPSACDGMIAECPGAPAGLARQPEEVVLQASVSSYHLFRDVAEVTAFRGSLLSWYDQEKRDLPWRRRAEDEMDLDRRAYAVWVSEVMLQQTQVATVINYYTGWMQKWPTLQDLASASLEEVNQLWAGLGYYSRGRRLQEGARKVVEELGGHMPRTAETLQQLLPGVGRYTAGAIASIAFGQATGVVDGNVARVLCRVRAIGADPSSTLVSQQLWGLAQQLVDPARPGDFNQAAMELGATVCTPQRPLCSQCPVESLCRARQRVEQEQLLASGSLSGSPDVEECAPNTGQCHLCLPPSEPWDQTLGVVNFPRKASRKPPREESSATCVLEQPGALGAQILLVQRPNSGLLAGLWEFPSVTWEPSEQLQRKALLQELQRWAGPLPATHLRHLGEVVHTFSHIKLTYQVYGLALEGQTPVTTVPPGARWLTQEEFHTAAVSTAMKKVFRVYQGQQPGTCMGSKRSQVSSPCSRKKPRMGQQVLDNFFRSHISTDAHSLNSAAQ
Description: Inhibition of MUTYH by quantifying inhibition of MUTYH-mediated cleavage and dissociation of quenched duplex DNA oligonucleotides, measured as fluorescence at 594 nm. To generate a functional strand incision and increase turn-over this assay is coupled to APE1.

The target in assay [3] is Endonuclease 8-like 1 (Homo sapiens) (UniProt Q96FI4).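 Note: fluorescence at 594 nm from quenched duplex DNA oligonucleotides released by NEIL1 cleavage and strand separation, reported as reduction of this enzyme activity.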
Description: Inhibition of NEIL1 by quantifying inhibition of NEIL1-mediated cleavage and dissociation of quenched duplex DNA oligonucleotides, measured as fluorescence at 594 nm.
The target of assay [4] is T2, Endonuclease 8-like 2 (Homo sapiens) (UniProt Q969S2).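 Note: fluorescence at 594 nm reports NEIL2 cutting and release of a quenched double-stranded DNA oligo substrate, reduced signal read as inhibition.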
T2 sequence (whole entry): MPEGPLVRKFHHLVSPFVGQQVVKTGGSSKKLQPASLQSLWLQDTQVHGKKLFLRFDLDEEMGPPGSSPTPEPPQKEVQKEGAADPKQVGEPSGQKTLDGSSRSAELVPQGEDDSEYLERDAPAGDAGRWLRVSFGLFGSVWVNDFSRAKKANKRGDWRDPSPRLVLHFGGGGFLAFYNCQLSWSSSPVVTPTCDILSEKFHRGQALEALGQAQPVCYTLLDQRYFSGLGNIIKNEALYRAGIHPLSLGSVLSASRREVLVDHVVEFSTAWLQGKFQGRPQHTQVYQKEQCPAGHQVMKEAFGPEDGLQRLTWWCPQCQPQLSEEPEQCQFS
Description: Inhibition of NEIL2 by quantifying inhibition of NEIL2-mediated cleavage and dissociation of quenched duplex DNA oligonucleotides, measured as fluorescence at 594 nm.

The target in assay [5] is T3, Endonuclease III-like protein 1 (Homo sapiens) (UniProt P78549).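 Note: enzyme assay tracking NTHL1 cutting and release of a quenched double-stranded DNA oligo substrate, read as fluorescence at 594 nm.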
T3 sequence (whole entry): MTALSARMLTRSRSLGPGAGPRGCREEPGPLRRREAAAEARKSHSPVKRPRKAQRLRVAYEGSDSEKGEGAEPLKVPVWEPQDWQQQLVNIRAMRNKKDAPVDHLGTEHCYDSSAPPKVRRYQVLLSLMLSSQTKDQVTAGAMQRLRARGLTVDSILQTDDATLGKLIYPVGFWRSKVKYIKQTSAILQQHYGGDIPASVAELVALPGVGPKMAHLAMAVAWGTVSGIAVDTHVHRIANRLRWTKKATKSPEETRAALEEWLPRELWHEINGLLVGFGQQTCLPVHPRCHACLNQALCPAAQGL
Description: Inhibition of NTHL1 by quantifying inhibition of NTHL1-mediated cleavage and dissociation of quenched duplex DNA oligonucleotides, measured as fluorescence at 594 nm.

Assay [6] concerns the target N-glycosylase/DNA lyase (Homo sapiens) (UniProt O15527).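 Note: OGG1 cleavage of a quenched duplex DNA oligonucleotide, coupled to APE1 for strand incision, read as fluorescence at 594 nm.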
Description: Inhibition of OGG1 by quantifying inhibition of OGG1-mediated cleavage and dissociation of quenched duplex DNA oligonucleotides, measured as fluorescence at 594 nm. To generate a functional strand incision and increase turn-over this assay is coupled to APE1.
Assay [7] concerns the target T4, Single-strand selective monofunctional uracil DNA glycosylase (Homo sapiens) (UniProt Q53HV7).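 Note: enzymatic SMUG1 assay coupled with APE1, reading fluorescence at 594 nm released when a quenched double-stranded DNA oligonucleotide substrate is cleaved and separated.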
T4 sequence (whole entry): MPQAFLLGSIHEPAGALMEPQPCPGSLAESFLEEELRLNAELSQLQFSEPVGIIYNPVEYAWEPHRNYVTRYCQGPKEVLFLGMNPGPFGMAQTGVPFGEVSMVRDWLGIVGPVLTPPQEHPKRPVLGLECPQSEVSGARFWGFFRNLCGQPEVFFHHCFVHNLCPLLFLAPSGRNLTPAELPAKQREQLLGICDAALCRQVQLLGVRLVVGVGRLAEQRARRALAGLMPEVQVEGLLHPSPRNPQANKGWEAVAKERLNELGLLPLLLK
Description: Inhibition of SMUG1 by quantifying inhibition of SMUG1-mediated cleavage and dissociation of quenched duplex DNA oligonucleotides, measured as fluorescence at 594 nm. To generate a functional strand incision and increase turn-over this assay is coupled to APE1.

Assay [8] has as its target G/T mismatch-specific thymine DNA glycosylase (Homo sapiens) (UniProt Q13569).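 Note: human TDG cleavage of quenched duplex DNA oligonucleotides coupled to APE1, strand release read as fluorescence at 594 nm, inhibition of TDG activity.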
Description: Inhibition of TDG by quantifying inhibition of TDG-mediated cleavage and dissociation of quenched duplex DNA oligonucleotides, measured as fluorescence at 594 nm. To generate a functional strand incision and increase turn-over this assay is coupled to APE1.
In assay [9] the target is Uracil-DNA glycosylase (Homo sapiens) (UniProt P13051).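 Note: UNG excision on a quenched double-stranded DNA oligo probe, with APE1 added for strand incision and turnover, read as fluorescence at 594 nm as strands separate.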
Chain of Uracil-DNA glycosylase (Homo sapiens) (P13051 whole entry): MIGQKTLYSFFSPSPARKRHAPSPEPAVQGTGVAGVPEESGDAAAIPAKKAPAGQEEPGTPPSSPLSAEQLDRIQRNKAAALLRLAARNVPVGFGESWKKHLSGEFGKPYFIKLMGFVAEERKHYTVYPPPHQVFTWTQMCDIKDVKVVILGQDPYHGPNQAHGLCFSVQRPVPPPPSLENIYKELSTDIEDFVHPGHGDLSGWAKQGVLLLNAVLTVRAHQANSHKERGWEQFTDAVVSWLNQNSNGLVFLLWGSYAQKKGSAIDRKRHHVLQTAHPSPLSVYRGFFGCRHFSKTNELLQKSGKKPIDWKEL
Description: Inhibition of UNG by quantifying inhibition of UNG-mediated cleavage and dissociation of quenched duplex DNA oligonucleotides, measured as fluorescence at 594 nm. To generate a functional strand incision and increase turn-over this assay is coupled to APE1.

Chain of Methyl-CpG-binding domain protein 4 (Homo sapiens) (O95243 whole entry, the tested form may be a part): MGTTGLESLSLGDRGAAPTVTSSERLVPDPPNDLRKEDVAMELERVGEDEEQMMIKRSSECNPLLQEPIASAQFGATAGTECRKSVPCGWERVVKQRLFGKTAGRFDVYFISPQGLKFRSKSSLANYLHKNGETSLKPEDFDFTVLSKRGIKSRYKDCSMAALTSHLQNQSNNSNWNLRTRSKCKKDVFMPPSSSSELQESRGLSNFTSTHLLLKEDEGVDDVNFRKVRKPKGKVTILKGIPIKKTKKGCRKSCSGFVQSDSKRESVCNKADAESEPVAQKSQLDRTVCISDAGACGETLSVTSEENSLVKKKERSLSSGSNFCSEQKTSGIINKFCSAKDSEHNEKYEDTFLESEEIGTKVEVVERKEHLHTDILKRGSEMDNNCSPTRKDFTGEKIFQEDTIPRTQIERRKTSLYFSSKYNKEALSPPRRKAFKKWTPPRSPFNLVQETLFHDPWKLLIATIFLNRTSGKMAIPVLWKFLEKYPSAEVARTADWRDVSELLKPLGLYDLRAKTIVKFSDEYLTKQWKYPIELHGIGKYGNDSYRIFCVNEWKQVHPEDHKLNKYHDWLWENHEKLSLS
Chain of N-glycosylase/DNA lyase (Homo sapiens) (O15527 whole entry): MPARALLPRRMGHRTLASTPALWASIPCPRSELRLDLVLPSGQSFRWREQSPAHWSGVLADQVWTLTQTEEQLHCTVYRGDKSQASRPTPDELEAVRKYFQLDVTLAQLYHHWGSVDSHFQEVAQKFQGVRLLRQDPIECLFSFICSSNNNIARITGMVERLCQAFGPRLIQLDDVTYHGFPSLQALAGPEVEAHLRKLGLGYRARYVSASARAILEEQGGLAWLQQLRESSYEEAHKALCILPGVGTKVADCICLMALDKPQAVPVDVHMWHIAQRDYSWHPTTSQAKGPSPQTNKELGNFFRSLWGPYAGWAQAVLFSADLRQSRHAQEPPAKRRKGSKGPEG
Chain of G/T mismatch-specific thymine DNA glycosylase (Homo sapiens) (Q13569 whole entry): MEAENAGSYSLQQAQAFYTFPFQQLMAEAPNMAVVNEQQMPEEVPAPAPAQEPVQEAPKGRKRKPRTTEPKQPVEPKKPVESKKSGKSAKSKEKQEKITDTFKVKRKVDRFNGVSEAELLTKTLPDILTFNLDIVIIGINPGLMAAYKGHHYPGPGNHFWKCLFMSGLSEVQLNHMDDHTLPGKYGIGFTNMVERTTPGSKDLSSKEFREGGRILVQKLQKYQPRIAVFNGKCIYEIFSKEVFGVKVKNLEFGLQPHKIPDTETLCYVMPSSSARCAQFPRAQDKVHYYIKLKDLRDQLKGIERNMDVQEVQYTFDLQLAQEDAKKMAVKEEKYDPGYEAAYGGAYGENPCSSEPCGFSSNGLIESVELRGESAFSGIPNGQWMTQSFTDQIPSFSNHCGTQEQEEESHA
Chain of Endonuclease 8-like 1 (Homo sapiens) (Q96FI4 whole entry): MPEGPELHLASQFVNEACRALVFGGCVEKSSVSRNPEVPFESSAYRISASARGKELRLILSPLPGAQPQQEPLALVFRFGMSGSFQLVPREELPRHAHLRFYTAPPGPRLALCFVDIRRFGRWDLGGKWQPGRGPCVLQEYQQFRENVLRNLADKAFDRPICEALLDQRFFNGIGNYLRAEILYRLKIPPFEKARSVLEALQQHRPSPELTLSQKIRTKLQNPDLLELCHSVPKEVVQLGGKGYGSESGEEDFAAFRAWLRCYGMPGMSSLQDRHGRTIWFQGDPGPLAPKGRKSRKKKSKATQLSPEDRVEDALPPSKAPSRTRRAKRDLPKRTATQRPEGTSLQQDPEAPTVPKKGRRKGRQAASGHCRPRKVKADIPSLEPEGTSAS

With `Cc1c(N2CCNCC2)nc2ccc(Br)cc2c1C(=O)NC[C@H](CCC(=O)O)c1ccccc1Cl`, the inhibition was 54.3% in assay [1] (Compound Concentration 10.0 uM); 16.7% in assay [2] (Compound Concentration 10.0 uM); -1.8% in assay [3] (Compound Concentration 10.0 uM); 0.276% in [4] (Compound Concentration 10.0 uM); -7.86% in assay [5] (Compound Concentration 10.0 uM); -2.82% in assay [6] (Compound Concentration 10.0 uM). Further, the results for the inhibition in [7] (Compound Concentration 10.0 uM), in assay [8] (Compound Concentration 10.0 uM) and in assay [9] (Compound Concentration 10.0 uM) were 15%, 41.3% and 3.28%, respectively.
In the case of `CCC(=N\O)/C(C)=C/c1ccc(F)c(C)c1`, the inhibition in assay [1] (Compound Concentration 10.0 uM) is 64.7%; in assay [2] (Compound Concentration 10.0 uM), -0.87%; in assay [3] (Compound Concentration 10.0 uM), -2.41%; in assay [4] (Compound Concentration 10.0 uM) it was 0.276%; in assay [5] (Compound Concentration 10.0 uM) it was -5.23%; in assay [6] (Compound Concentration 10.0 uM), 16.2%. In addition, the results for the inhibition in [7] (Compound Concentration 10.0 uM), in assay [8] (Compound Concentration 10.0 uM) and in [9] (Compound Concentration 10.0 uM) were 22.6%, 41.4% and 3.87%, respectively.
For the compound `CC1(C)C(=O)C(C)(C)c2cc(C(=O)Nc3ccc(C(=O)O)cc3)ccc21`, the inhibition in assay [1] (Compound Concentration 10.0 uM) is 49.5%; in assay [2] (Compound Concentration 10.0 uM) it was -4.47%; in [3] (Compound Concentration 10.0 uM) it was -2.26%; in assay [4] (Compound Concentration 10.0 uM), -2.53%; in assay [5] (Compound Concentration 10.0 uM), -7.2%; in assay [6] (Compound Concentration 10.0 uM), 9.87%. In addition, the inhibition in assay [7] (Compound Concentration 10.0 uM) was 5.8%; in assay [8] (Compound Concentration 10.0 uM) it was 47.5%; in assay [9] (Compound Concentration 10.0 uM), -1.52%.
Regarding `Cc1c(N2CCCC2)nc2ccc(Br)cc2c1C(=O)NC[C@H](CCC(=O)O)c1ccccc1Cl`, the inhibition in assay [1] (Compound Concentration 10.0 uM) is 69.2%; in [2] (Compound Concentration 10.0 uM), 22%; in assay [3] (Compound Concentration 10.0 uM) it was 3.19%; in assay [4] (Compound Concentration 10.0 uM), -0.744%; in assay [5] (Compound Concentration 10.0 uM) it was -1.95%; in assay [6] (Compound Concentration 10.0 uM), 31.5%. The inhibition in assay [7] (Compound Concentration 10.0 uM) turned out to be 12.3%; in [8] (Compound Concentration 10.0 uM) it was 54%; in [9] (Compound Concentration 10.0 uM) it was 5.08%.
In the case of `CN(C(=O)c1cnn2cccnc12)c1cc2c(cc1N1CCOCC1)C(=O)N(C[C@@H](F)C(C)(C)O)C2`, the inhibition was 23.6% in assay [1] (Compound Concentration 10.0 uM); 2.33% in assay [2] (Compound Concentration 10.0 uM); 6.13% in assay [3] (Compound Concentration 10.0 uM); -1.57% in assay [4] (Compound Concentration 10.0 uM); -9.94% in assay [5] (Compound Concentration 10.0 uM); -1.31% in assay [6] (Compound Concentration 10.0 uM). In addition, the values for the inhibition in assay [7] (Compound Concentration 10.0 uM), in assay [8] (Compound Concentration 10.0 uM) and in assay [9] (Compound Concentration 10.0 uM) were 9.25%, 39.8% and 0.621%, respectively.
Consider `O=C(N[C@@H]1C2CCN(CC2)[C@H]1Cc1cccnc1)c1cc2ccccc2o1`, for which the inhibition in [1] (Compound Concentration 10.0 uM) is -7.25%; in assay [2] (Compound Concentration 10.0 uM), -1.82%; in assay [3] (Compound Concentration 10.0 uM), 5.2%; in assay [4] (Compound Concentration 10.0 uM), 1.94%; in assay [5] (Compound Concentration 10.0 uM) it was 27.8%; in [6] (Compound Concentration 10.0 uM), -7.23%. The inhibition was -7.47% in assay [7] (Compound Concentration 10.0 uM), -0.849% in assay [8] (Compound Concentration 10.0 uM) and -1.31% in assay [9] (Compound Concentration 10.0 uM).
On to `Cc1cccc(-c2[nH]c(CNc3ccccc3F)nc2-c2ccc3ncnn3c2)n1`, for which the inhibition was 12.7% in assay [1] (Compound Concentration 1.0 uM); 6.74% in [2] (Compound Concentration 1.0 uM); -2.11% in [3] (Compound Concentration 1.0 uM); 6.16% in [4] (Compound Concentration 1.0 uM); -6.89% in assay [5] (Compound Concentration 1.0 uM); 4.54% in assay [6] (Compound Concentration 1.0 uM). Besides, the inhibition in assay [7] (Compound Concentration 1.0 uM) was -5.72%; in assay [8] (Compound Concentration 1.0 uM) it was 35.6%; in [9] (Compound Concentration 1.0 uM) it was -5.91%.
Consider `CC(C)(O)[C@H](F)CN1Cc2cc(NC(=O)c3cnn4cccnc34)c(N3CCOCC3)cc2C1=O`, for which the inhibition in assay [1] (Compound Concentration 10.0 uM) is 25.9%; in assay [2] (Compound Concentration 10.0 uM), -1.18%; in assay [3] (Compound Concentration 10.0 uM), -5.19%; in assay [4] (Compound Concentration 10.0 uM), 3.79%; in [5] (Compound Concentration 10.0 uM), 0.755%; in assay [6] (Compound Concentration 10.0 uM), 0.815%. Also, the inhibition in assay [7] (Compound Concentration 10.0 uM) was 15.8%; in assay [8] (Compound Concentration 10.0 uM), 45.3%; in assay [9] (Compound Concentration 10.0 uM), 2.48%.
Turning to `C[C@@H]1C[C@H](C)CN(c2ncc(Cl)c(Nc3ccc4c(c3)cc(OC(C)(C)C(=O)O)c(=O)n4C)n2)C1`, the inhibition in [1] (Compound Concentration 10.0 uM) was 73.2%; in [2] (Compound Concentration 10.0 uM), 18.2%; in assay [3] (Compound Concentration 10.0 uM), -5.89%; in [4] (Compound Concentration 10.0 uM), 8.19%; in assay [5] (Compound Concentration 10.0 uM) it was -6.88%; in assay [6] (Compound Concentration 10.0 uM), 19.3%. Further, the figures for the inhibition in [7] (Compound Concentration 10.0 uM), in [8] (Compound Concentration 10.0 uM) and in assay [9] (Compound Concentration 10.0 uM) were 17.6%, 69.6% and 7.75%, respectively.
